Source: PubChem BioAssay (NCI)
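All cell lines were grown in 96-well plates and treated with compound for 48 hours. GI50 = concentration required for 50% inhibition of growth. TGI: concentration producing complete growth inhibition.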

Assays:
Assay in all cases: NCI-60 cell line screen, 48 h
[1] = system: MCF7 breast
[2] = system: HL-60(TB) leukemia
[3] = system: SK-MEL-28 melanoma
[4] = system: NCI-H226 lung
[5] = system: HS 578T breast
[6] = system: COLO 205 colon
[7] = system: SN12C renal
[8] = system: HOP-92 NSCLC
[9] = system: HCT-116 colon
[10] = system: PC-3 prostate
[11] = system: RXF 393 renal
[12] = system: SK-MEL-5 melanoma
[13] = system: BT-549 breast
[14] = system: LOX IMVI melanoma
[15] = system: K-562 leukemia
[16] = system: NCI-H522 lung
[17] = system: A498 renal
[18] = system: SK-MEL-2 melanoma
[19] = system: 786-0 renal
[20] = system: SK-OV-3 ovarian
[21] = system: HCC-2998 colon
[22] = system: SW-620 colon
[23] = system: NCI-H23 lung
[24] = system: SF-268 CNS
[25] = system: SF-539 CNS
[26] = system: SNB-75 CNS
[27] = system: SR leukemia
[28] = system: HCT-15 colon
[29] = system: KM12 colon
[30] = system: MALME-3M melanoma
[31] = system: RPMI-8226 leukemia
[32] = system: CAKI-1 renal
[33] = system: ACHN renal
[34] = system: UO-31 renal
[35] = system: MDA-MB-435
[36] = system: SF-295 CNS
[37] = system: OVCAR-4 ovarian
[38] = system: HOP-62 NSCLC
[39] = system: MDA-MB-231 breast
[40] = system: UACC-62 melanoma
[41] = system: MOLT-4 leukemia
[42] = system: M14 melanoma
[43] = system: OVCAR-5 ovarian
[44] = system: NCI/ADR-RES ovarian
[45] = system: CCRF-CEM leukemia
[46] = system: A549 NSCLC
[47] = system: T-47D breast
[48] = system: HT29 colon
[49] = system: NCI-H460 lung
[50] = system: SNB-19 CNS
[51] = system: U251 CNS
[52] = system: UACC-257 melanoma
[53] = system: DU-145 prostate

COc1ccc2c(c1)c(CC(=O)[Se]CCC#N)c(C)n2C(=O)c1ccc(Cl)cc1
GI50 [1]: 2.56 µM
TGI [1]: 9.7 µM
GI50 [2]: 1.2 µM
TGI [2]: 6.25 µM
GI50 [3]: 2.19 µM
TGI [3]: 5.66 µM
GI50 [4]: 1.55 µM
TGI [4]: 4.01 µM
GI50 [5]: 2.35 µM
TGI [5]: 8.79 µM
GI50 [6]: 2.26 µM
TGI [6]: 4.67 µM
GI50 [7]: 2.49 µM
TGI [7]: 6.67 µM
GI50 [8]: 1.5 µM
TGI [8]: 3.11 µM
GI50 [9]: 1.74 µM
TGI [9]: 3.34 µM
GI50 [10]: 2.54 µM
TGI [10]: 7.35 µM
GI50 [11]: 1.52 µM
TGI [11]: 3.17 µM
GI50 [12]: 2.05 µM
TGI [12]: 4.18 µM
GI50 [13]: 1.71 µM
TGI [13]: 3.35 µM
GI50 [14]: 1.54 µM
TGI [14]: 3.96 µM
GI50 [15]: 3.24 µM
TGI [15]: > 100 µM
GI50 [16]: 1.84 µM
TGI [16]: 3.54 µM
GI50 [17]: 1.6 µM
TGI [17]: 3.08 µM
GI50 [18]: 2.39 µM
TGI [18]: 5.43 µM
GI50 [19]: 1.92 µM
TGI [19]: 3.47 µM
GI50 [20]: 3.62 µM
TGI [20]: 6.33 µM
GI50 [21]: 3.61 µM
TGI [21]: 12.8 µM
GI50 [22]: 3.41 µM
TGI [22]: 10.4 µM
GI50 [23]: 2.28 µM
TGI [23]: 5.86 µM
GI50 [24]: 2.31 µM
TGI [24]: 5.07 µM
GI50 [25]: 2.02 µM
TGI [25]: 4.36 µM
GI50 [26]: 1.5 µM
TGI [26]: 3.72 µM
GI50 [27]: 3.78 µM
TGI [27]: > 100 µM
GI50 [28]: 2.17 µM
TGI [28]: 5.27 µM
GI50 [29]: 4.13 µM
TGI [29]: 31 µM
GI50 [30]: 1.7 µM
TGI [30]: 4.36 µM
GI50 [31]: 2.51 µM
TGI [31]: 6.99 µM
GI50 [32]: 1.93 µM
TGI [32]: 3.5 µM
GI50 [33]: 2.93 µM
TGI [33]: 7.79 µM
GI50 [34]: 1.73 µM
TGI [34]: 4.2 µM
GI50 [35]: 1.75 µM
TGI [35]: 3.47 µM
GI50 [36]: 1.8 µM
TGI [36]: 3.3 µM
GI50 [37]: 2.38 µM
TGI [37]: 6.94 µM
GI50 [38]: 1.77 µM
TGI [38]: 3.46 µM
GI50 [39]: 2.04 µM
TGI [39]: 4.97 µM
GI50 [40]: 1.94 µM
TGI [40]: 4.7 µM
GI50 [41]: 2.9 µM
TGI [41]: > 100 µM
GI50 [42]: 1.39 µM
TGI [42]: 3.04 µM
GI50 [43]: 2.8 µM
TGI [43]: 8.87 µM
GI50 [44]: 2.18 µM
TGI [44]: 6.31 µM
GI50 [45]: 2.43 µM
TGI [45]: > 100 µM
GI50 [46]: 1.87 µM
TGI [46]: 3.86 µM
GI50 [47]: 9.78 µM
TGI [47]: 38.8 µM
GI50 [48]: 2.45 µM
TGI [48]: 7.39 µM
GI50 [49]: 2.37 µM
TGI [49]: 8.38 µM
GI50 [50]: 1.89 µM
TGI [50]: 3.58 µM
GI50 [51]: 1.66 µM
TGI [51]: 3.11 µM
GI50 [52]: 1.6 µM
TGI [52]: 3.46 µM
GI50 [53]: 2.26 µM
TGI [53]: 5.93 µM
